Test results: ChEMBL document CHEMBL4130414, “Asymmetric synthesis of novel triazole derivatives and their in vitro antiviral activity and mechanism of action” (Eur J Med Chem, 2017)
Converted amounts (≈) assume the structure as drawn. The source made the active and inactive calls. The calls are words filed in the database; no cut-off is given here.

How the values were obtained:
[1] = Cytotoxicity against human RD cells assessed as reduction in cell viability after 3 days by MTT assay; type: cell-based
[2] = Cytotoxicity against human Hep2 cells assessed as reduction in cell viability after 3 days by MTT assay; type: cell-based; settings: HEp-2 cells
[3] = tested on: Enterovirus A71; test: Antiviral activity against EV71 Xiangyang-Hubei-09 infected in human RD cells assessed as inhibition of virus-induced cytopathic effect by MTT dye based assay; type: functional, organism-based
[4] = tested on: Coxsackievirus B3; test: Antiviral activity against Coxsackievirus B3 (strain Nancy) infected in human HEP2 cells assessed as inhibition of virus-induced cytopathic effect by MTT dye based assay; type: functional, organism-based; settings: for EC50: Enterovirus B, Nancy, HEp-2, read-out: EC50
[5] = Selectivity index, ratio of CC50 for human HEP2 cells to EC50 for Coxsackievirus B3 (strain Nancy) infected in human HEP cells; type: toxicity, cell-based; settings: HEp-2 cells, read-out: Ratio CC50/EC50
[6] = Selectivity index, ratio of CC50 for human RD cells to EC50 for EV71 Xiangyang-Hubei-09 infected in human RD cells; type: toxicity, cell-based; settings: read-out: Ratio CC50/EC50
[7] = tested on: Enterovirus A71; test: Antiviral activity against EV71 Xiangyang-Hubei-09 infected in human RD cells assessed as inhibition of virus-induced cytopathic effect at 16 ug/ml treated 1 hr post viral infection measured after 48 hrs by MTT dye based assay relative to control; type: functional; settings: for inhibition at 16 µg/mL: Enterovirus A, Xiangyang-Hubei-09, RD
[8] = tested on: Coxsackievirus B3; test: Antiviral activity against Coxsackievirus B3 (strain Nancy) infected in human HEP2 cells assessed as inhibition of virus-induced cytopathic effect at 16 ug/ml after 48 hrs by MTT dye based assay; type: functional, organism-based
[9] = tested on: Enterovirus A71; test: Antiviral activity against EV71 Xiangyang-Hubei-09 infected in human RD cells assessed as alteration in viral cell morphology at 16 ug/ml after 48 hrs; type: functional, organism-based
[10] = tested on: Enterovirus A71; test: Antiviral activity against EV71 Xiangyang-Hubei-09 infected in human RD cells assessed as reduction in progeny viral yield at 16 ug/ml treated 1 hr post viral infection measured after 48 hrs; type: functional
[11] = tested on: Enterovirus A71; test: Antiviral activity against EV71 Xiangyang-Hubei-09 infected in human RD cells assessed as inhibition of viral adsorption at 16 ug/ml treated simultaneously with viral infection for 2 hrs followed by washing with PBS measured after 48 hrs; type: functional, organism-based
[12] = tested on: Enterovirus A71; test: Antiviral activity against EV71 Xiangyang-Hubei-09 infected in human RD cells at 16 ug/ml preincubated with RD cells for 2 hrs followed by washing with PBS and subsequent viral infection measured after 48 hrs; type: functional, organism-based
[13] = tested on: Enterovirus A71; test: Antiviral activity against EV71 Xiangyang-Hubei-09 infected in human RD cells assessed as inhibition of virus-induced cytopathic effect at 16 ug/ml preincubated with RD cells for 2 hrs followed by washing with PBS and subsequent viral infection measured after 48 hrs by MTT assay; type: functional, organism-based
[14] = Enterovirus A, Xiangyang-Hubei-09, RD, read-out: EC50

Compound | CC50 at 72 h [1] | CC50 at 72 h [2] | EC50 ([3]; rd) | EC50 [4] | selectivity ratio [5] | EC50 [3, 14] | selectivity ratio [6] | inhibition [3] | inhibition [4] | inhibition at 16 µg/mL [7] | inhibition [8] | inhibition [9] | log(activity) [10] | inhibition [11] | inhibition [12] | inhibition [13] | inhibition [7]
c1ccc(C(CCn2cncn2)C2CCCCC2)cc1 (single isomer, unassigned; 40) | 9.2 µg/mL (≈ 34.2 µM) | 21.8 µg/mL (≈ 80.9 µM) | Not Active | 4.7 µg/mL (≈ 17.4 µM) | 4.6 |  |  |  |  |  |  |  |  |  |  |  | 
c1ccc(C[C@H](CCn2cncn2)c2ccccc2)cc1 | 55.4 µg/mL (≈ 200 µM) | 60.9 µg/mL (≈ 220 µM) |  | 14.9 µg/mL (≈ 53.7 µM) | 4.1 | 12.7 µg/mL (≈ 45.8 µM) | 4.4 |  |  |  |  |  |  |  |  |  | 
CC[C@@H](CCn1cncn1)c1ccc(C)cc1 | 79.4 µg/mL (≈ 346 µM) | 69.9 µg/mL (≈ 305 µM) |  | 6 µg/mL (≈ 26.2 µM) | 11.7 | 5.4 µg/mL (≈ 23.5 µM) | 14.7 | Dose-dependent effect | Dose-dependent effect | 81% | Active | Active | 4.7 | Active | inactive | inactive | 
CC[C@@H](CCn1cncn1)c1ccc(OC)cc1 | 115 µg/mL (≈ 469 µM) | 146 µg/mL (≈ 596 µM) |  | 10.1 µg/mL (≈ 41.2 µM) | 14.5 | 5.3 µg/mL (≈ 21.6 µM) | 21.7 | Dose-dependent effect | Dose-dependent effect | 88.1% | Active | Active |  |  |  |  | 
c1ccc(C(CCn2cncn2)C2CCCCC2)cc1 (single isomer, unassigned; 39) | 11.8 µg/mL (≈ 43.8 µM) | 24.8 µg/mL (≈ 92.1 µM) | Not Active | 5.1 µg/mL (≈ 18.9 µM) | 4.9 |  |  |  |  |  |  |  |  |  |  |  | 
CC[C@H](CCn1cncn1)c1ccc(OC)cc1 | 118 µg/mL (≈ 483 µM) | 153 µg/mL (≈ 625 µM) |  | 15.1 µg/mL (≈ 61.6 µM) | 10.2 | 15.9 µg/mL (≈ 64.8 µM) | 7.4 |  |  |  |  |  |  |  |  |  | 
C[C@H](CCn1cncn1)Cc1ccccc1 | 153 µg/mL (≈ 710 µM) | 144 µg/mL (≈ 670 µM) |  | 11.4 µg/mL (≈ 52.9 µM) | 12.6 | 6.2 µg/mL (≈ 28.8 µM) | 24.7 | Dose-dependent effect | Dose-dependent effect | 72% | Active | Active | 4.7 | Active | inactive | inactive | 
CCCC[C@H](CCn1cncn1)c1ccccc1 | 48.3 µg/mL (≈ 198 µM) | 50.2 µg/mL (≈ 206 µM) |  | 10.4 µg/mL (≈ 42.7 µM) | 4.8 | 12.1 µg/mL (≈ 49.7 µM) | 4 |  |  |  |  |  |  |  |  |  | 
CC[C@@H](CCn1cncn1)c1ccc(Cl)cc1 | 55.3 µg/mL (≈ 221 µM) | 55.1 µg/mL (≈ 221 µM) |  | 10.5 µg/mL (≈ 42 µM) | 5.2 | 5.4 µg/mL (≈ 21.6 µM) | 10.2 |  |  |  |  |  |  |  |  |  | 
Cc1ccc(C[C@H](CCn2cncn2)c2ccccc2)cc1 | 37.8 µg/mL (≈ 130 µM) | 38.8 µg/mL (≈ 133 µM) | Not Active | 7.4 µg/mL (≈ 25.4 µM) | 5.2 |  |  |  |  |  |  |  |  |  |  |  | 
C[C@@H](CCn1cncn1)Cc1ccccc1 | 114 µg/mL (≈ 530 µM) | 131 µg/mL (≈ 609 µM) |  | 10.3 µg/mL (≈ 47.8 µM) | 12.7 | 9.1 µg/mL (≈ 42.3 µM) | 12.6 | Dose-dependent effect | Dose-dependent effect |  | Active | Active |  |  |  |  | Active
NC(=O)c1ncn([C@@H]2O[C@H](CO)[C@@H](O)[C@H]2O)n1 [RIBAVIRIN] | 486 µg/mL (≈ 1990 µM) | 572 µg/mL (≈ 2340 µM) |  | 42.9 µg/mL (≈ 176 µM) | 13.3 | 32.5 µg/mL (≈ 133 µM) | 15 |  |  |  | Active |  |  |  |  |  | Active
COc1ccc([C@H](CCn2cncn2)Cc2ccccc2)cc1 | 66 µg/mL (≈ 215 µM) | 60.3 µg/mL (≈ 196 µM) |  | 12.2 µg/mL (≈ 39.7 µM) | 4.9 | 12.2 µg/mL (≈ 39.7 µM) | 5.4 |  |  |  |  |  |  |  |  |  | 
CC[C@H](CCn1cncn1)c1ccc(Cl)cc1 | 57 µg/mL (≈ 228 µM) | 50.6 µg/mL (≈ 203 µM) | Not Active | 13.5 µg/mL (≈ 54.1 µM) | 3.7 |  |  |  |  |  |  |  |  |  |  |  | 
CCC[C@@H](CCn1cncn1)c1ccc(C)cc1 | 74.1 µg/mL (≈ 304 µM) | 71.3 µg/mL (≈ 293 µM) |  | 10.3 µg/mL (≈ 42.3 µM) | 6.9 | 10.9 µg/mL (≈ 44.8 µM) | 6.8 |  |  |  |  |  |  |  |  |  | 
CC[C@H](CCn1cncn1)c1ccc(C)cc1 | 85.2 µg/mL (≈ 372 µM) | 75.2 µg/mL (≈ 328 µM) |  | 12.1 µg/mL (≈ 52.8 µM) | 6.2 | 6.6 µg/mL (≈ 28.8 µM) | 12.9 |  |  |  |  |  |  |  |  |  | 
Cc1ccc([C@H](CCn2cncn2)Cc2ccccc2)cc1 | 117 µg/mL (≈ 402 µM) | 152 µg/mL (≈ 522 µM) |  | 13.6 µg/mL (≈ 46.7 µM) | 11.2 | 9.2 µg/mL (≈ 31.6 µM) | 12.7 |  |  |  |  |  |  |  |  |  | 
Cc1ccc(C(CCn2cncn2)C2CCCCC2)cc1 (single isomer, unassigned) | 57.9 µg/mL (≈ 204 µM) | 57.3 µg/mL (≈ 202 µM) |  | 11.7 µg/mL (≈ 41.3 µM) | 4.9 | 10.6 µg/mL (≈ 37.4 µM) | 5.5 |  |  |  |  |  |  |  |  |  | 
